Reference: PubChem BioAssay AID2060896 (Molecular Pharmacology Branch, DTP, NCI, 2025)

Test system: 941728-121-R-J1-PDC complex spheroid viability
Assay: Anticancer human tumor 941728-121-R-J1-PDC patient-derived lung adenocarcinoma cell line growth inhibition [RAS]
Settings: for IC50: curve of first compound; for viability, T/C: stronger effect = lower value
In short: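 Agents were tested in combination matrices in half-log decrements from a top concentration at or near clinical Cmax (10 microM if undetermined). Targets were multi-cell spheroids of tumour lines plus HUVEC and MSC stromal cells.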
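Note: spheroids exposed to compounds for 7 days before readout.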
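Throughout, for viability, T/C: 100% = DMSO vehicle control viability.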

Q: Cc1nc(N2CCC3(CC2)COC(C)C3N)c(CO)nc1Sc1ccnc(N)c1Cl (centres undefined) + C#Cc1c(F)ccc2cc(O)cc(-c3ncc4c(N5CC6CCC(C5)N6)nc(OCC56CCCN5CC(F)C6)nc4c3F)c12 was tested. Which IC50 (second compound 0.0316 µM) did it give?
A: The IC50 was < 31.6 nM.

Q: And the IC50 (second compound 0.1 µM)?
A: The IC50 was < 31.6 nM.

Q: What about the IC50 (second compound 0.316 µM) of the same molecule?
A: The IC50 was < 31.6 nM.

Q: And the IC50 (second compound 1 µM)?
A: Its IC50 is < 31.6 nM.

Q: And the IC50 (second compound 3.16 µM)?
A: The IC50 was < 31.6 nM.

Q: What about the IC50 (second compound 10 µM) of the same molecule?
A: The IC50 was < 31.6 nM.

Q: And the viability, T/C (second compound 0.0316 µM, first compound 0.0316 µM)?
A: The viability, T/C was 50.4%.

Q: What about the viability, T/C (second compound 0.0316 µM, first compound 0.1 µM) of the same molecule?
A: The viability, T/C was 42.5%.

Q: What about the viability, T/C (second compound 0.0316 µM, first compound 0.316 µM) of the same molecule?
A: Its viability, T/C is 37.8%.

Q: What about the viability, T/C (second compound 0.0316 µM, first compound 1 µM) of the same molecule?
A: Its viability, T/C is 33.5%.

Q: And the viability, T/C (second compound 0.0316 µM, first compound 3.16 µM)?
A: The viability, T/C was 34%.

Q: What about the viability, T/C (second compound 0.0316 µM, first compound 10 µM) of the same molecule?
A: The viability, T/C was 36.8%.

Q: What about the viability, T/C (second compound 0.1 µM, first compound 0.0316 µM) of the same molecule?
A: The viability, T/C was 42.8%.

Q: What about the viability, T/C (second compound 0.1 µM, first compound 0.1 µM) of the same molecule?
A: Its viability, T/C is 37.8%.

Q: And the viability, T/C (second compound 0.1 µM, first compound 0.316 µM)?
A: Its viability, T/C is 33.1%.

Q: What about the viability, T/C (second compound 0.1 µM, first compound 1 µM) of the same molecule?
A: Its viability, T/C is 31.7%.

Q: What about the viability, T/C (second compound 0.1 µM, first compound 3.16 µM) of the same molecule?
A: Its viability, T/C is 33%.

Q: What about the viability, T/C (second compound 0.1 µM, first compound 10 µM) of the same molecule?
A: The viability, T/C was 35.4%.

Q: What about the viability, T/C (second compound 0.316 µM, first compound 0.0316 µM) of the same molecule?
A: Its viability, T/C is 37.8%.

Q: What about the viability, T/C (second compound 0.316 µM, first compound 0.1 µM) of the same molecule?
A: Its viability, T/C is 34.2%.

Q: And the viability, T/C (second compound 0.316 µM, first compound 0.316 µM)?
A: Its viability, T/C is 35.7%.

Q: What about the viability, T/C (second compound 0.316 µM, first compound 1 µM) of the same molecule?
A: Its viability, T/C is 29.1%.

Q: And the viability, T/C (second compound 0.316 µM, first compound 3.16 µM)?
A: The viability, T/C was 32%.

Q: What about the viability, T/C (second compound 0.316 µM, first compound 10 µM) of the same molecule?
A: The viability, T/C was 31%.

Q: And the viability, T/C (second compound 1 µM, first compound 0.0316 µM)?
A: The viability, T/C was 30.2%.

Q: What about the viability, T/C (second compound 1 µM, first compound 0.1 µM) of the same molecule?
A: The viability, T/C was 32.4%.

Q: And the viability, T/C (second compound 1 µM, first compound 0.316 µM)?
A: Its viability, T/C is 29.9%.

Q: What about the viability, T/C (second compound 1 µM, first compound 1 µM) of the same molecule?
A: Its viability, T/C is 27.9%.

Q: What about the viability, T/C (second compound 1 µM, first compound 3.16 µM) of the same molecule?
A: Its viability, T/C is 30.5%.

Q: And the viability, T/C (second compound 1 µM, first compound 10 µM)?
A: Its viability, T/C is 32.3%.

Q: What about the viability, T/C (second compound 3.16 µM, first compound 0.0316 µM) of the same molecule?
A: The viability, T/C was 28.8%.

Q: What about the viability, T/C (second compound 3.16 µM, first compound 0.1 µM) of the same molecule?
A: Its viability, T/C is 29.1%.

Q: And the viability, T/C (second compound 3.16 µM, first compound 0.316 µM)?
A: Its viability, T/C is 25.7%.

Q: And the viability, T/C (second compound 3.16 µM, first compound 1 µM)?
A: The viability, T/C was 23.1%.

Q: And the viability, T/C (second compound 3.16 µM, first compound 3.16 µM)?
A: The viability, T/C was 25.1%.

Q: What about the viability, T/C (second compound 3.16 µM, first compound 10 µM) of the same molecule?
A: Its viability, T/C is 26.2%.

Q: And the viability, T/C (second compound 10 µM, first compound 0.0316 µM)?
A: The viability, T/C was 20.1%.

Q: What about the viability, T/C (second compound 10 µM, first compound 0.1 µM) of the same molecule?
A: Its viability, T/C is 21.4%.

Q: And the viability, T/C (second compound 10 µM, first compound 0.316 µM)?
A: The viability, T/C was 19.9%.

Q: And the viability, T/C (second compound 10 µM, first compound 1 µM)?
A: Its viability, T/C is 19.6%.

Q: What about the viability, T/C (second compound 10 µM, first compound 3.16 µM) of the same molecule?
A: Its viability, T/C is 21.3%.

Q: What about the viability, T/C (second compound 10 µM, first compound 10 µM) of the same molecule?
A: Its viability, T/C is 20.8%.

Q: With CCN1CCN(Cc2ccc(Nc3ncc(F)c(-c4cc(F)c5nc(C)n(C(C)C)c5c4)n3)nc2)CC1 + CCn1c(-c2cccnc2C(C)OC)c2c3cc(ccc31)N1CCOC(CC(NC(=O)C(C(C)C)N(C)C(=O)C3(F)CCN(C(=O)C#CC(C)(C)N(C)C)CC3)C(=O)N3CCCC(N3)C(=O)OCC(C)(C)C2)C1 as the molecule, how does the IC50 (second compound 0.000949 µM) read?
A: The IC50 was < 3.16 nM.

Q: And the IC50 (second compound 0.003 µM)?
A: Its IC50 is < 3.16 nM.

Q: What about the IC50 (second compound 0.00949 µM) of the same molecule?
A: Its IC50 is < 3.16 nM.

Q: And the IC50 (second compound 0.03 µM)?
A: Its IC50 is < 3.16 nM.

Q: And the IC50 (second compound 0.0949 µM)?
A: The IC50 was < 3.16 nM.

Q: And the IC50 (second compound 0.3 µM)?
A: Its IC50 is < 3.16 nM.

Q: What about the viability, T/C (second compound 0.000949 µM, first compound 0.00316 µM) of the same molecule?
A: The viability, T/C was 22.2%.

Q: What about the viability, T/C (second compound 0.000949 µM, first compound 0.01 µM) of the same molecule?
A: The viability, T/C was 23.4%.

Q: What about the viability, T/C (second compound 0.000949 µM, first compound 0.0316 µM) of the same molecule?
A: The viability, T/C was 16.8%.

Q: And the viability, T/C (second compound 0.000949 µM, first compound 0.1 µM)?
A: The viability, T/C was 16.1%.

Q: What about the viability, T/C (second compound 0.000949 µM, first compound 0.316 µM) of the same molecule?
A: The viability, T/C was 16.6%.

Q: And the viability, T/C (second compound 0.000949 µM, first compound 1 µM)?
A: The viability, T/C was 12.2%.

Q: And the viability, T/C (second compound 0.003 µM, first compound 0.00316 µM)?
A: Its viability, T/C is 22.9%.

Q: What about the viability, T/C (second compound 0.003 µM, first compound 0.01 µM) of the same molecule?
A: Its viability, T/C is 19.3%.

Q: What about the viability, T/C (second compound 0.003 µM, first compound 0.0316 µM) of the same molecule?
A: Its viability, T/C is 17.4%.

Q: And the viability, T/C (second compound 0.003 µM, first compound 0.1 µM)?
A: The viability, T/C was 19.3%.

Q: And the viability, T/C (second compound 0.003 µM, first compound 0.316 µM)?
A: The viability, T/C was 17.3%.

Q: What about the viability, T/C (second compound 0.003 µM, first compound 1 µM) of the same molecule?
A: The viability, T/C was 11.3%.

Q: And the viability, T/C (second compound 0.00949 µM, first compound 0.00316 µM)?
A: The viability, T/C was 21.3%.

Q: And the viability, T/C (second compound 0.00949 µM, first compound 0.01 µM)?
A: The viability, T/C was 21.9%.

Q: And the viability, T/C (second compound 0.00949 µM, first compound 0.0316 µM)?
A: The viability, T/C was 19.8%.

Q: What about the viability, T/C (second compound 0.00949 µM, first compound 0.1 µM) of the same molecule?
A: The viability, T/C was 17.7%.

Q: And the viability, T/C (second compound 0.00949 µM, first compound 0.316 µM)?
A: Its viability, T/C is 15.8%.

Q: And the viability, T/C (second compound 0.00949 µM, first compound 1 µM)?
A: Its viability, T/C is 12.9%.

Q: What about the viability, T/C (second compound 0.03 µM, first compound 0.00316 µM) of the same molecule?
A: Its viability, T/C is 24.5%.

Q: And the viability, T/C (second compound 0.03 µM, first compound 0.01 µM)?
A: The viability, T/C was 21.8%.

Q: What about the viability, T/C (second compound 0.03 µM, first compound 0.0316 µM) of the same molecule?
A: Its viability, T/C is 18%.

Q: And the viability, T/C (second compound 0.03 µM, first compound 0.1 µM)?
A: Its viability, T/C is 19.2%.

Q: What about the viability, T/C (second compound 0.03 µM, first compound 0.316 µM) of the same molecule?
A: The viability, T/C was 13.6%.

Q: What about the viability, T/C (second compound 0.03 µM, first compound 1 µM) of the same molecule?
A: Its viability, T/C is 17.5%.

Q: And the viability, T/C (second compound 0.0949 µM, first compound 0.00316 µM)?
A: Its viability, T/C is 21.9%.

Q: And the viability, T/C (second compound 0.0949 µM, first compound 0.01 µM)?
A: The viability, T/C was 23.3%.

Q: What about the viability, T/C (second compound 0.0949 µM, first compound 0.0316 µM) of the same molecule?
A: The viability, T/C was 19.8%.

Q: And the viability, T/C (second compound 0.0949 µM, first compound 0.1 µM)?
A: Its viability, T/C is 16.3%.

Q: And the viability, T/C (second compound 0.0949 µM, first compound 0.316 µM)?
A: Its viability, T/C is 11.7%.

Q: And the viability, T/C (second compound 0.0949 µM, first compound 1 µM)?
A: Its viability, T/C is 15.8%.

Q: And the viability, T/C (second compound 0.3 µM, first compound 0.00316 µM)?
A: The viability, T/C was 21.2%.

Q: And the viability, T/C (second compound 0.3 µM, first compound 0.01 µM)?
A: Its viability, T/C is 21.9%.

Q: What about the viability, T/C (second compound 0.3 µM, first compound 0.0316 µM) of the same molecule?
A: The viability, T/C was 21.3%.

Q: And the viability, T/C (second compound 0.3 µM, first compound 0.1 µM)?
A: The viability, T/C was 16.3%.

Q: What about the viability, T/C (second compound 0.3 µM, first compound 0.316 µM) of the same molecule?
A: The viability, T/C was 16%.

Q: And the viability, T/C (second compound 0.3 µM, first compound 1 µM)?
A: Its viability, T/C is 17.9%.
